Data reported in EP2420510B1, “Nicotinoyl peptide derivatives and cosmetic composition comprising the same” (BIO-FD&C Co., Ltd., priority 2010, dated 2013).
Residues, ends and D or L forms follow the SMILES beside them.

Key:
[1] = Cytotoxicity test (MTT, cell growth effect); assay type: cell-based; conditions: human fibroblasts, MTT absorbance at 570 nm relative to purified water control (=100)
Procedure: (§1) 50 µl of 3-(4,5-dimethylthiazol-2-yl)-2,5-diphenyltetrazolium bromide (MTT, Sigma M5655, USA) solution (2.5 mg/mℓ) was added to the culture solution, followed by further culturing for 3 hours. Then, the culture solution was centrifuged to remove a supernatant, and 200 µl of dimethylsulfoxide (DMSO, Sigma D2650, USA) was added to each well and vortexed for 20 minutes to dissolve formazan crystals formed. 100 µl of the resulting solution was added to a 96-well plate and its absorbance was measured at 570 nm with enzyme-linked immunosorbent assay (ELISA).

iNOS = assay: Anti-inflammatory activity test (iNOS activity inhibition test; nitric oxide by Griess reagent after LPS); assay type: cell-based, murine; conditions: Mus musculus; amount of nitric oxide produced relative to group treated with LPS only (=100); 100 µM pre-treatment 18 hours, then LPS 24 hours, Raw264.7 cells; read-out: Yields (%)
Procedure: Raw264.7 cells (murine macrophage cell line) were suspended in 10% fetal bovine serum-Dulbecco's modified Eagle's medium (FBS-DMEM) without […] (GIBCO) in […] and seed to a 24-well plate.
Then, […] of lipopolysaccharide (LPS, Sigma) was added and cultured for 24 hours. Afterwards, 100µℓ of the obtained supernatant was added to a 96-well plate and the same amount of Griess reagent (Sigma) was added, followed by light vortexing at room temperature for 10 minutes. The absorbance was measured at 570 nm.
The calibration curve was prepared using sodium nitrite as a standard, and the amount of nitric oxide produced in the culture solution was calculated. […]

[2] = tested on: Human fibroblasts (primary cell line, CCD-986sk); conditions: 100 µM, 24 hours, CCD-986sk fibroblasts, PIP ELISA absorbance at 450 nm relative to purified water control (=100)
Procedure: Human fibroblasts (primary cell line, CCD-986sk) were seeded to a plate and cultured in Dulbecco's modified Eagle's medium (DMEM) supplemented with penicillin (100 IU/ml), streptomycin (100µg/ml) and 10% fetal bovine serum (FBS) at 37 °C with 5% CO2.
The cultured cells were divided to a 48-well plate in 5×10^4 cells/well and cultured for 24 hours. […] The amount of collagen generated in the culture solution was measured with procollagen type I C-peptide (PIP) (Takara, MK101) ELISA.
After 100 µℓ of antibody-PoD conjugate solution was added to each well, 20 µℓ of the culture solution diluted to 1/5 and standard solution were added and cultured at 37 °C for 3 hours. Then, each well was washed four times with 400 µℓ of PBS. 100 µℓ of color coupler was added and cultured at room temperature for 15 minutes. Then, 100 µℓ of IN sulfuric acid was added and the absorbance was measured at 450 nm with a ELISA reader.
Collagen generation activity = (Absorbance of peptide treated group)/(Absorbance of control) X 100 [formula]

Human fibroblasts = assay: Cytotoxicity test (MTT, cell growth effect); assay type: cell-based; conditions: 100 µM, 24 hours, MTT absorbance at 570 nm relative to purified water control (=100)
Procedure: as §1

NC(=O)c1cccnc1 [Nicotinamide]
viability at 24 h, 100 µM [1]: 103% | activity at 100 µM (iNOS): 96.1% | Collagen Generation Activity (%) [2]: 108.8%

C[C@@H](O)[C@H](NC(=O)[C@H](CCCCN)NC(=O)c1cccnc1)C(=O)N[C@H](C(=O)N[C@@H](CCCCN)C(=O)N[C@@H](CO)C(=O)O)[C@@H](C)O [Comparative Example 2, nicotinoyl-pentapeptide (lysyl-threonyl-threonyl-lysyl-serine (SEQ ID No:12))] (HELM PEPTIDE1{[O=C(c1cccnc1)[*:2]].K.T.T.K.S}$$$$V2.0)
Cell Growth Effect (%) (Human fibroblasts): 97.6%

O=C(O)c1cccnc1 [Nicotinic acid]
viability at 24 h, 100 µM [1]: 102% | activity at 100 µM (iNOS): 98.8% | Collagen Generation Activity (%) [2]: 105.2%

CC(C)C[C@H](NC(=O)[C@H](Cc1ccccc1)NC(=O)CNC(=O)CNC(=O)[C@H](Cc1ccc(O)cc1)NC(=O)c1cccnc1)C(=O)N[C@@H](CCCNC(=N)N)C(=O)N[C@@H](CCCCN)C(=O)N[C@@H](Cc1ccc(O)cc1)C(=O)N1CCC[C@H]1C(=O)O [Example 3, nicotinoyl-nonapeptide (tyrosyl-glycyl-glycyl-phenylalanyl-leucyl-arginyl-lysyl-tyrosyl-proline (SEQ ID No:3))] (HELM PEPTIDE1{[O=C(c1cccnc1)[*:2]].Y.G.G.F.L.R.K.Y.P}$$$$V2.0)
Cell Growth Effect (%) (Human fibroblasts): 99.1%

CC(C)C[C@H](NC(=O)[C@H](Cc1ccccc1)NC(=O)CNC(=O)CNC(=O)[C@H](Cc1ccc(O)cc1)NC(=O)c1cccnc1)C(=O)N[C@@H](CCCNC(=N)N)C(=O)N[C@@H](CCCCN)C(=O)N[C@@H](Cc1ccc(O)cc1)C(=O)N1CCC[C@H]1C(=O)N[C@@H](CCCCN)C(=O)O [Example 4, nicotinoyl-decapeptide (tyrosyl-glycyl-glycyl-phenylalanyl-leucyl-arginyl-lysyl-tyrosyl-prolyl-lycine (SEQ ID No:4))] (HELM PEPTIDE1{[O=C(c1cccnc1)[*:2]].Y.G.G.F.L.R.K.Y.P.K}$$$$V2.0)
Cell Growth Effect (%) (Human fibroblasts): 98.8%

CSCC[C@H](NC(=O)[C@H](Cc1ccccc1)NC(=O)CNC(=O)CNC(=O)[C@H](Cc1ccc(O)cc1)NC(=O)c1cccnc1)C(=O)O [Example 1, nicotinoyl-pentapeptide (tyrosyl-glycyl-glycyl-phenylalanyl-methionine (SEQ ID No:1))]
Cell Growth Effect (%) (Human fibroblasts): 102.1%

O=C(O)CNC(=O)[C@H](CS)NC(=O)CC[C@H](NC(=O)c1cccnc1)C(=O)O [Comparative Example 1, nicotinoyl-tripeptide (γ-glutamyl-cysteinyl-glycine (SEO ID No:13))]
Cell Growth Effect (%) (Human fibroblasts): 98.3%

CC(C)C[C@H](NC(=O)[C@H](Cc1ccccc1)NC(=O)CNC(=O)CNC(=O)[C@H](Cc1ccc(O)cc1)NC(=O)c1cccnc1)C(=O)O [Example 2, nicotinoyl-pentapeptide (tyrosyl-glycyl-glycyl-Phenylalanyl-leucine (SEO ID No:2))]
Cell Growth Effect (%) (Human fibroblasts): 101.3%
